One data set deals with Klebsiella pneumoniae. Put plainly: Antimicrobial activity against qnr-negative Klebsiella pneumoniae C2 harboring qnrA1 gene.
A further data set in a line: in vivo. Conditions: CBA, mouse, sc, 2.5 mg/kg.

Values after ≈ are worked out from the molar mass of the structure shown.

The text below walks through data of ChEMBL document CHEMBL1671667, “Impact of low-level resistance to fluoroquinolones due to qnrA1 and qnrS1 genes or a gyrA mutation on ciprofloxacin bactericidal activity in a murine model of Escherichia coli urinary tract infection” (Antimicrob Agents Chemother, 2009).

Description for in vivo: Cmax in immunocompetent CBA mouse infected with Escherichia coli at 2.5 mg/kg, sc administered as single dose after 15 mins by liquid chromatography

As usually defined, the MIC is the least concentration at which growth counts as inhibited. As a reminder, the Cmax is the maximum level reached in the sampled fluid or tissue. As to `O=C(O)c1cn(C2CC2)c2cc(N3CCNCC3)c(F)cc2c1=O` [CIPROFLOXACIN], the lowest concentration to inhibit growth in the data set with Klebsiella pneumoniae (MIC) was 4 µg/mL (≈ 12.1 µM). The same molecule showed a Cmax at 0.25 h in the data set “in vivo” of 1100 ng/mL.
